Data reported in patent US7332312B2, “Carbonyl reductase, gene thereof and use of the same” (priority 2002, dated 2008).

These molecules were tested on reductase RRG (assay: Substrate specificity of RRG: reducing activity against various carbonyl compounds). Details: pH 6.5.
Assay type: biochemical, Rhodotorula glutinis var. dairenensis IFO 0415

Molecule	% Activity [%]
CCOC(=O)C(Cl)C(=O)c1ccccc1 (stereo not drawn) [ethyl 2-chloro-3-oxo-3-phenpropionate, ethyl 2-chloro-3-oxo-3-phen propionate]	34

Same assay, conditions: relative to reducing activity with 2-chloro-1-(3′-chlorophenyl)ethanone taken as 100%; substrate 1 mM, NADPH 0.25 mM, pH 6.5, 30° C.

Molecule	% Activity [%]
CC(=O)CCO [4-hydroxy-2-butanone]	11
O=C(/C=C/c1ccccc1)c1ccccc1 [trans-calcone]	22
CCCC(C)=O [methyl n-propylketone]	12
CCC=O [propionaldehyde]	4
CC1(C)COC(=O)C1=O [dihydro-4,4-dimethyl-furandio]	238
CCCCCC=O [n-hexylaldehyde]	10
O=Cc1ccc(Cl)cc1 [p-chlorobenzaldehyde]	11
O=C(CCl)c1cccc(Cl)c1 [2-chloro-1-(3′-chlorophenyl)ethanone]	100
O=C1CCN(Cc2ccccc2)C1 [1-benyl-3-pyrolidinone]	4
CC1=CC(=O)CC(C)(C)C1 [isophorone]	1
CCC(=O)CC [diethyl ketone]	17
CCOC(=O)CC(=O)CBr [ethyl 4-bromoacetoacetate]	33
CC(=O)c1ccncc1 [4-acetylpyridine]	44
O=Cc1ccccc1[N+](=O)[O-] [o-nitrobenza1dehyde]	31
methyl 2-eteneacetoacetate	5
CC(=O)C=O [methyl glyoxal]	13
CC12CCC(C(=O)C1=O)C2(C)C (stereo not drawn) [camphorquinone]	33
CCOC(=O)CC(=O)c1ccccc1 [ethyl benzoylylacetate]	15
CCC(=O)C(=O)O [2-keto-n-butyric acid]	7
CC(=O)CC(=O)OC(C)(C)C [tert-butyl acetoacetate]	1
O=CCCc1ccccc1 [3-phenylpropionaldehyde]	10
CCOC(=O)C(Cl)C(C)=O (stereo not drawn) [ethyl 2-chloroacetoacetate]	111
O=C(c1ccccc1)C(F)(F)F [α,α,α-trifluoroacetophenon]	83
CCC(C)=O [2-butanone]	10
CC(=O)C(C)=O [diacetyl]	4

Molecule	% Activity [%]
CCOC(=O)CC(=O)COC(C)=O [ethyl 4-acetoxyacetoacetate]	46
O=C(O)CC(=O)C(=O)O [oxalacetic acid]	24
CC(C)=O [acetone]	11
COC(=O)CC(=O)CCl [methyl 4-chloroacetoacetate]	81
CC(=O)CC(C)C [4-methyl-2-pentanone]	10
COc1ccc(C(C)=O)cc1OC [3,4-dimethoxyacetophenone]	46
CCOC(=O)C1CCC(=O)C1 (stereo not drawn) [ethyl 3-oxocyclopentanecarboxylate]	32
CCCCCCC(=O)C(=O)OC [methyl 2-oxooctanoate]	3
O=C(c1ccccc1)C(O)c1ccccc1 (stereo not drawn) [benzoin]	9
CC(=O)c1cccc([N+](=O)[O-])c1 [m-nitroacetophenone]	35
CC(=O)c1cccnc1 [3-acetylpyridine]	28
O=Cc1cccc([N+](=O)[O-])c1 [m-nitrobenzaldehyde]	64
CCCC(=O)c1ccccc1 [n-butyrophenone]	8
O=Cc1ccccc1 [benzaldehyde]	25
CC(=O)CC(C)=O [acetylacetone]	23
CC(=O)CC(=O)OCc1ccccc1 [benzyl acetoacetate]	30
CCCC=O [n-butylaldhyde]	20
O=Cc1ccc([N+](=O)[O-])cc1 [p-nitrobenzaldhyde]	162
CCOC(=O)CC(=O)CN=[N+]=[N-] [ethyl 4-azideacetoacetate]	11
CC(=O)C1CC1 [cyclopropyl methyl ketone]	3
O=Cc1ccccn1 [2-pyridinecarbaldehyde]	45
CCC(=O)c1ccccc1 [propiophenone]	14
O=CCCCC=O [glutaraldehyde]	2
CCOC(=O)CC(=O)CCl [ethyl 4-chloroacetoacetate]	12
COC(=O)C1CCCC1=O (stereo not drawn) [methyl 2-oxocyclopentanecarboxylate, methyl 2-oxocyclopentane carboxylate]	11

Molecule	% Activity [%]
O=Cc1cccc(Cl)c1 [m-chlorobenzaldehyde]	45
O=Cc1ccccc1Cl [o-chlorobenzaldehyde]	24
O=C1COC(=O)C1 [tetrahydrofuran-2,4-dione]	14
CCCCC(C)=O [2-hexanone]	13
CC(=O)CO [hydroxyacetone]	16
CCOC(=O)CC(C)=O [ethyl acetoacetate]	35
CC(=O)c1ccc(F)cc1 [4-fluoroacetophenone]	30
CCCCCC(C)=O [2-heptanone]	11
O=C(CO)c1ccccc1 [2-hydroxyacetophenone]	34
CCOC(=O)C(C)=O [ethly pyruvate]	247
CC(=O)c1ccccn1 [2-acetylpyridine]	60
O=Cc1ccncc1 [pyridine-4-aldehyde]	55
CC(=O)c1cccc(O)c1 [m-hydroxyacetophenone]	16
CCOC(=O)C(C)C(C)=O (stereo not drawn) [ethyl 2-methylacetoacetate]	12
CC(=O)CCC(=O)O [levulinic acid]	31
CC(=O)c1ccc(Cl)cc1 [p-chloroacetophenone]	5
O=CC(O)CO (racemic) [DL-glyceraldehyde]	1
COC(=O)CC(C)=O [methyl acetoacetate]	14
CCOC(=O)CC(=O)CO [ethyl 4-hydroxyacetoacetate]	22
COC(=O)C(C)=O [methyl pyrucvate]	208
CCOC(=O)CC(=O)COCc1ccccc1 [ethyl 4-benzyloxyacetoacetate]	58
CCC(=O)Cc1ccccc1 [1-phenyl-2-butanone]	20
O=C1CCCC1 [cyclopentanone]	9
CCCCCCCCOC(=O)CC(=O)CCl [n-octyl 4-chloroacetoacetate]	72
